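Exposure lasted 48 hours, with cells grown in 96-well plates and compounds tested at five concentrations. TGI marks complete inhibition of growth.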
Experiments:
Test in all cases: NCI tumour cell line growth inhibition, 48 h
[1] = system: XF 498 CNS
[2] = system: LXFL 529 NSCLC
[3] = system: DMS 114 small cell lung
[4] = system: KM20L2 colon
[5] = system: P388 leukemia
[6] = system: SN12K1 renal
[7] = system: P388/ADR leukemia
[8] = system: HOP-18 NSCLC

SMILES | TGI [1] | TGI [2] | TGI [3] | TGI [4] | TGI [5] | TGI [6] | TGI [7] | TGI [8]
CC[C@]12C=CCN3CCC4(c5cc([C@@]6(C(=O)OC)CC7CN(CCc8c6[nH]c6ccccc86)CC6CCCCC67)c(OC)cc5N(C)C4[C@](O)(C(=O)OC)C1OC(C)=O)[C@@H]32 (some centres not stated) | 9.12 µM | 12.7 µM | < 0.01 µM | < 0.01 µM | – | – | – | –
CCCn1cc2c3c(cccc31)C1C=C(C)CN(C)C1C2 (configuration not stated) | – | – | 43.1 µM | 38.8 µM | 28.5 µM | 44.1 µM | 43.2 µM | 50.5 µM
c1cncc(CSc2nc3ccccc3nc2-c2cccs2)c1 | > 100 µM | – | – | – | – | – | – | > 100 µM

— PubChem BioAssay (NCI)
